Common to all, as to type: biochemical
The target in assay [1] is T1, CYP3A4 (Homo sapiens, UniProt P08684).
T1 construct: 0.1 mg/mL human liver microsomes; from tissue; host or cells: human liver microsomes
Kind of assay: IC50 against CYP3A4 by inhibition of testosterone metabolism in human liver microsomes. Conditions: 0.1 mg/mL human liver microsomes, 25 μM testosterone, 1 mM NADPH, 6-β-OH-testosterone production, eight minutes; read-out: IC50, μM (HLM, testosterone). As for the experimental part: 2. Determination of IC50 Against CYP3A4 by Measurement of Inhibition of Testosterone Metabolism
This assay was performed using a standard 96 well plate design. […] Quantitation of metabolite peak area ratio against an internal standard is determined by LC-MS/MS analysis. The production of 6-β-OH-testosterone from testosterone metabolism is determined after incubation for eight minutes by comparison to a standard curve generated for the metabolite
(§1) Samples were analyzed in the MRM mode using a Sciex API 3000 mass spectrometer (Applied Biosystems, Foster City, Calif.) with a Paradigm MS4 binary pump (Michrom BioResources Inc., Auburn, Calif.) and a LEAP CTC PAL autosampler (LEAP Technologies, Carrboro, N.C.). A Phenomenex Synergi, 4μ, Polar-RP, 10×2.0 mm column (Phenomenex, Torrance, Calif.) was used for separation with a mobile phase composition of: 0.1% formic acid in water (A) and: 0.1% formic acid in methanol (B). The following gradient was used: […]
(§2) The sample injection volume was 10 μL and flow was split post-column with 0.4 mL/min going to the mass spectrometer. Analysis was performed using the following API 3000 mass spectrometer settings: […]
(In general: Microsomes from liver hold many membrane-bound enzymes, among them those of drug oxidation.)

The target in assay [2] is T2, recombinant CYP3A4-b5 enzyme (Baculosomes®) (Homo sapiens, UniProt P08684).
T2 construct: purchased Invitrogen (Carlsbad, Calif.)
T2 sequence (P08684 whole entry): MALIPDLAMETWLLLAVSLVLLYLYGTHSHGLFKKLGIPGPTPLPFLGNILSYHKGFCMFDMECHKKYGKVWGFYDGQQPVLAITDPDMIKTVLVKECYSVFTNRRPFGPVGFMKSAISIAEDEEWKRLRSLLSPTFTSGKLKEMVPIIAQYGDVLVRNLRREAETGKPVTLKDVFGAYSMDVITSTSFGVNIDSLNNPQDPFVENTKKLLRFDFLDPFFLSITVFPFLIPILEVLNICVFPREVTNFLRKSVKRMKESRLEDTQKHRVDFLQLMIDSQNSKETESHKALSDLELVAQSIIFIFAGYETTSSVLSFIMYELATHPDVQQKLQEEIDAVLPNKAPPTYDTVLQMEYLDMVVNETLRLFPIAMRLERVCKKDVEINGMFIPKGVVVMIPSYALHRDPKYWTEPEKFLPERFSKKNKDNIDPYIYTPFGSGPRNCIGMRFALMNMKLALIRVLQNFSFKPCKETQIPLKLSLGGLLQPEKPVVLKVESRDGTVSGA
Kind of assay: Kiapp against recombinant CYP3A4 enzyme (Baculosomes), BFC substrate. As to conditions: recombinant CYP3A4-b5 (Invitrogen), 5 uM BFC, 200 uM NADPH, pre-incubation at least 30 minutes, pH 7.0, room temperature. On the procedure:
1. Determination of Compound Kiapp
A determination of the Kiapp of the compounds of the invention against recombinant CYP3A4 enzyme was performed as follows. The assay was performed in a 100 mM sodium phosphate buffer pH 7.0, 5 mM TCEP and containing 2% dimethylformamide (final concentration) upon addition of substrate and inhibitor. A typical reaction for the determination of Kiapp values was carried at room temperature in a solid black Costar u-bottom 96-well polypropylene plate. […] When pre-incubation was completed (˜30 min), the reaction was initiated by adding NADPH (200 uM, final concentration), and 7-benzyloxy-4-(trifluoromethyl)-coumarin (BFC) (5 uM, final concentration). The oxidation of the coumarin substrate was recorded by a 96-well plate reader POLARstar (BMG LABTECH, Offenburg, Germany).
The initial reaction velocities were measured during the first 5 min of the reaction when the release of the fluorescent product is linear with time, in the absence and in the presence of various concentrations of inhibitors.
The fluorescent substrate BFC was purchased from Sigma (St Louis, Mo.). Two commercial sources of recombinant enzymes were used in this study: recombinant CYP3A4-b5 enzyme (Baculosomes®) was purchased from Invitrogen (Carlsbad, Calif.) and the recombinant CYP3A4+b5 enzyme (Supersomes®) was purchased from BD Biosciences (Woburn, Mass.).

Assay [3] has as its target T1, CYP3A4. As to the kind of experiment: IC50 against CYP3A4 by inhibition of midazolam metabolism in human liver microsomes. Conditions: 0.1 mg/mL human liver microsomes, 2 μM midazolam, 1 mM NADPH, 1-hydroxymidazolam production, eight minutes; read-out: IC50, μM (HLM, midazolam). As for the experimental part: 3. Determination of IC50 Against CYP3A4 by Measurement of Inhibition of Midazolam Metabolism
This assay was performed using a standard 96 well plate design. […] The incubation substrate mix contains 2 μM midazolam, 0.1 mg/mL human liver microsomes, 1 mM NADPH, and potassium phosphate buffer (100 mM, pH 7.4). Quantitation of metabolite peak area ratio against internal standard is determined by LC-MS/MS analysis. The production of 1-hydroxymidazolam from midazolam metabolism is determined after incubation for eight minutes by comparison to a standard curve generated for the metabolite.
as §1, §2

The structures appear in SMILES notation. Where a name gives a salt, the structure may show the parent alone.

T1 sequence (P08684 whole entry): as above

One may read the IC50 as the concentration that gives 50% inhibition. As to `O=C(Cn1nc(-c2ccncc2)cc1Cc1ccc(F)cc1)N1CCC(N2CCCC2=O)CC1` [Example 5, 1(1-{[5-(4-fluorobenzyl)-3-pyridin-4-yl-1H-pyrazol-1-yl]acetyl}piperidin-4-yl)pyrrolidin-2-one], the figures for the 50% inhibitory concentration (IC50) at CYP3A4 [1] and at CYP3A4 [3] were 0.033 µM and 0.01 µM, respectively. For the same compound, the Ki in assay [2] was 0.085 µM.

Regarding `NC1CCN(C(=O)Cn2nc(-c3ccncc3)cc2Cc2ccc(F)cc2)CC1` [Example 8, 1-{[5-(4-fluorobenzyl)-3-pyridin-4-yl-1H-pyrazol-1-yl]acetyl}piperidin-4-amine], the IC50 at CYP3A4 [1] is 0.273 µM; on CYP3A4 [3], 0.114 µM. The Ki in assay [2] came to 0.547 µM.

Regarding `CCC(=O)N(C)C1CCN(C(=O)Cn2nc(-c3ccncc3)cc2Cc2ccc(F)cc2)CC1` [Example 10, N-(1-{[5-(4-fluorobenzyl)-3-pyridin-4-yl-1H-pyrazol-1-yl]acetyl}piperidin-4-yl)-N-methylpropanamide], the half-maximal inhibitory concentration (IC50) worked out at 0.033 µM at CYP3A4 [1] and 0.013 µM at CYP3A4 [3]. Further, the Ki in assay [2] was determined as 0.0297 µM.

As to `CC(C)C(=O)N(C)C1CCN(C(=O)Cn2nc(-c3ccncc3)cc2Cc2ccc(F)cc2)CC1` [Example 11, N-(1-{[5-(4-fluorobenzyl)-3-pyridin-4-yl-1H-pyrazol-1-yl]acetyl}piperidin-4-yl)-N,2-dimethylpropanamide], the figures for the IC50 on CYP3A4 [1] and at CYP3A4 [3] were 0.012 µM and less than 0.003 µM, respectively. In addition, the Ki in assay [2] was 0.00841 µM.

Regarding `CN(C(=O)C1CCC1)C1CCN(C(=O)Cn2nc(-c3ccncc3)cc2Cc2ccc(F)cc2)CC1` [Example 12, N-(1-{[5-(4-fluorobenzyl)-3-pyridin-4-yl-1H-pyrazol-1-yl]acetyl}piperidin-4-yl)-N-methylcyclobutanecarboxamide], the IC50 on CYP3A4 [1] was 0.009 µM; on CYP3A4 [3] it was less than 0.003 µM. In addition, the Ki in assay [2] turned out to be 0.00701 µM.

Take `CN(C(=O)C1CC1)C1CCN(C(=O)Cn2nc(-c3ccncc3)cc2Cc2ccc(F)cc2)CC1` [Example 13, N-(1-{[5-(4-fluorobenzyl)-3-pyridin-4-yl-1H-pyrazol-1-yl]acetyl}piperidin-4-yl)-N-methylcyclopropanecarboxamide]: the IC50 at CYP3A4 [1] is 0.009 µM; at CYP3A4 [3], less than 0.00346 µM. Also, in assay [2], the Ki was determined as 0.0111 µM.

Take `CN(C1CCN(C(=O)Cn2nc(-c3ccncc3)cc2Cc2ccc(F)cc2)CC1)S(C)(=O)=O` [Example 14, N-(1-{[5-(4-fluorobenzyl)-3-pyridin-4-yl-1H-pyrazol-1-yl]acetyl}piperidin-4-yl)-N-methylmethanesulfonamide]: the IC50 was 0.015 µM at CYP3A4 [1] and 0.013 µM on CYP3A4 [3]. For the same compound, in assay [2], the Ki was determined as 0.0236 µM.

As for `COC(=O)N(C)C1CCN(C(=O)Cn2nc(-c3ccncc3)cc2Cc2ccc(F)cc2)CC1` [Example 15, Methyl (1-{[5-(4-fluorobenzyl)-3-pyridin-4-yl-1H-pyrazol-1-yl]acetyl}piperidin-4-yl)methylcarbamate], the IC50 at CYP3A4 [1] is 0.013 µM; on CYP3A4 [3], 0.009 µM. In addition, the Ki in assay [2] was 0.0222 µM.

For `Fc1ccc(Cc2cc(-c3ccncc3)nn2C2CN(C(c3ccccc3)c3ccccc3)C2)cc1` [Example 20, 4-[1-[1-(diphenylmethyl)azetidin-3-yl]-5-(4-fluorobenzyl)-1H-pyrazol-3-yl]pyridine], the IC50 stood at 0.251 µM on CYP3A4 [1] and 0.228 µM at CYP3A4 [3]. The Ki in assay [2] was determined as 0.0365 µM.

With `CCC(=O)N1CC(n2nc(-c3ccncc3)cc2Cc2ccc(F)cc2)C1` [Example 22, 1-(3-(5-(4-fluorobenzyl)-3-(pyridin-4-yl)-1H-pyrazol-1-yl)azetidin-1-yl)propan-1-one], the IC50 at CYP3A4 [1] worked out at 0.072 µM; at CYP3A4 [3] it was 0.084 µM. In assay [2], the Ki came to 0.166 µM.

For the compound `CS(=O)(=O)N1CC(n2nc(-c3ccncc3)cc2Cc2ccc(F)cc2)C1` [Example 23, 4-{5-(4-fluorobenzyl)-1-[1-(methylsulfonyl)azetidin-3-yl]-1H-pyrazol-3-yl}pyridine], the IC50 at CYP3A4 [1] amounted to 0.218 µM; at CYP3A4 [3], 0.375 µM. Also, the Ki in assay [2] was 0.159 µM.

As to `O=C(c1ncc[nH]1)N1CC(n2nc(-c3ccncc3)cc2Cc2ccc(F)cc2)C1` [Example 24, 4-{5-(4-fluorobenzyl)-1-[1-(1H-imidazol-2-ylcarbonyl)azetidin-3-yl]-1H-pyrazol-3-yl}pyridine], the figures for the IC50 on CYP3A4 [1] and on CYP3A4 [3] were 0.047 µM and 0.027 µM, respectively. Also, the Ki in assay [2] came out at 0.0772 µM.

Regarding `Fc1ccc(Cc2cc(-c3ccncc3)nn2Cc2nc(-c3ncccn3)no2)cc1` [Example 25, 2-(5-{[5-(4-fluorobenzyl)-3-pyridin-4-yl-1H-pyrazol-1-yl]methyl}-1,2,4-oxadiazol-3-yl)pyrimidine], the results for the IC50 at CYP3A4 [1] and on CYP3A4 [3] were less than 0.012 µM and 0.045 µM, respectively. In assay [2], the Ki was determined as 0.0568 µM.

Regarding `CN(C)C(=O)c1noc(Cn2nc(-c3ccncc3)cc2Cc2ccc(F)cc2)n1` [Example 27, 5-{[5-(4-fluorobenzyl)-3-pyridin-4-yl-1H-pyrazol-1-yl]methyl}-N,N-dimethyl-1,2,4-oxadiazole-3-carboxamide (maleic acid salt)], the IC50 at CYP3A4 [1] stood at 0.021 µM; at CYP3A4 [3], 0.086 µM. For the same compound, the Ki in assay [2] was 0.12 µM.

Turning to `Cc1nnc(Cn2nc(-c3ccncc3)cc2Cc2ccc(F)cc2)o1` [Example 28, 4-{5-(4-fluorobenzyl)-1-[(5-methyl-1,3,4-oxadiazol-2-yl)methyl]-1H-pyrazol-3-yl}pyridine], the results for the IC50 on CYP3A4 [1] and at CYP3A4 [3] were 0.0305 µM and 0.0792 µM, respectively. Further, in assay [2], the Ki came out at 0.608 µM.

On to `OCCn1nc(Cc2ccc(F)cc2)cc1-c1ccncc1` [Example 30, 2-[3-(4-fluorobenzyl)-5-pyridin-4-yl-1H-pyrazol-1-yl]ethanol], for which the IC50 on CYP3A4 [1] is 0.446 µM; at CYP3A4 [3] it was 0.773 µM. In assay [2], the Ki turned out to be 0.646 µM.

Take `COCCn1nc(-c2ccncc2)cc1Cc1ccc(F)cc1` [Example 31, 4-(5-(4-fluorobenzyl)-1-(2-methoxyethyl)-1H-pyrazol-3-yl)pyridine]: the 50% inhibitory concentration (IC50) at CYP3A4 [1] was 0.0225 µM; at CYP3A4 [3], 0.0466 µM. The Ki in assay [2] is 0.105 µM.

In the case of `OCCCn1nc(-c2ccncc2)cc1Cc1ccc(F)cc1` [Example 32, 3-(5-(4-fluorobenzyl)-3-(pyridin-4-yl)-1H-pyrazol-1-yl)propan-1-ol], the figures for the IC50 on CYP3A4 [1] and at CYP3A4 [3] were 0.015 µM and 0.061 µM, respectively. Further, in assay [2], the Ki worked out at 0.12 µM.

`O=C(Cn1nc(-c2c[nH]cn2)cc1Cc1ccc(F)cc1)N1CCC[C@@H](O)C1` [Example 40, (3R)-1-{[5-(4-fluorobenzyl)-3-(1H-imidazol-4-yl)-1H-pyrazol-1-yl]acetyl}piperidin-3-ol]: the IC50 was more than 0.75 µM on CYP3A4 [1] and 0.446 µM on CYP3A4 [3]. In addition, the Ki in assay [2] is more than 1 µM.

For the compound `CC(O)Cn1nc(-c2ccncc2)cc1Cc1ccc(F)cc1` (stereo not drawn) [Example 52, 1-[5-(4-fluorobenzyl)-3-pyridin-4-yl-1H-pyrazol-1-yl]propan-2-ol], the figures for the half-inhibitory concentration (IC50) on CYP3A4 [1] and on CYP3A4 [3] were 0.056 µM and 0.071 µM, respectively. Further, the Ki in assay [2] was determined as 0.175 µM.

Consider `O=C(Cn1nc(-c2ccncc2)cc1Cc1ccc(F)cc1)NC1CCC1` [Example 53, N-cyclobutyl-2-[5-(4-fluorobenzyl)-3-pyridin-4-yl-1H-pyrazol-1-yl]acetamide], for which the figures for the IC50 on CYP3A4 [1] and on CYP3A4 [3] were 0.095 µM and 0.028 µM, respectively. Also, in assay [2], the Ki amounted to 0.034 µM.

Consider `CC(C)(CN1CCOCC1)NC(=O)Cn1nc(-c2ccncc2)cc1Cc1ccc(F)cc1` [Example 54, N-(1,1-dimethyl-2-morpholin-4-ylethyl)-2-[5-(4-fluorobenzyl)-3-pyridin-4-yl-1H-pyrazol-1-yl]acetamide], for which the IC50 on CYP3A4 [1] and at CYP3A4 [3] was less than 0.012 µM in each case. Besides, the Ki in assay [2] came to 0.0085 µM.

(Values after patent US7919488B2, “Therapeutic compounds” (Pfizer Inc., priority 2006, dated 2011).)
